How the values were obtained:
Experiment in all cases: relative viability (nuclei count vs DMSO), 5 days (fraction); higher = more cells survive
[1] = compound: C1COCCN1C2=NC(=NC3=C2OC4=C3C=CC=N4)C5=CC(=CC=C5)NC(=O)C6=CN=C(C=C6)N + C[C@]1(O)C[C@@H](c2nc(-c3ccc4ccc(-c5ccccc5)nc4c3)c3c(N)nccn32)C1 [Linsitinib] (partner 1 µM)
Outline: (§1)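 Relative viability divides the nuclei count in treated wells by that in vehicle wells. Lung cancer cell lines were seeded in 1536-well plates, dosed by pin tool the next day, and fixed and stained after 5 days in one step with final 0.05% Triton X-100, 1% formaldehyde and 1 ug/ml Hoechst. Dosing was a single drug or a fixed anchor-drug dose plus five library-drug doses (not always all listed) in √10 steps, and values are medians of duplicate plates imaged at 4×.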

[2] = compound: C1COCCN1C2=NC(=NC3=C2OC4=C3C=CC=N4)C5=CC(=CC=C5)NC(=O)C6=CN=C(C=C6)N + COc1cc2c(Oc3ccc(NC(=O)C4(C(=O)Nc5ccc(F)cc5)CC4)cc3F)ccnc2cc1OCCCN1CCOCC1 [Foretinib] (partner 0.25 µM)
Outline: as §1

Entinostat + Tozasertib = compound: Nc1ccccc1NC(=O)c1ccc(CNC(=O)OCc2cccnc2)cc1 [Entinostat] + Cc1cc(Nc2cc(N3CCN(C)CC3)nc(Sc3ccc(NC(=O)C4CC4)cc3)n2)n[nH]1 [Tozasertib] (partner 0.1 µM)
Outline: as §1

Entinostat + Linsitinib = compound: Nc1ccccc1NC(=O)c1ccc(CNC(=O)OCc2cccnc2)cc1 [Entinostat] + C[C@]1(O)C[C@@H](c2nc(-c3ccc4ccc(-c5ccccc5)nc4c3)c3c(N)nccn32)C1 [Linsitinib] (partner 1 µM)
Outline: as §1

Row | Cell Line | relative viability ([1]; first compound 0.02 µM) | relative viability ([1]; first compound 0.06325 µM) | relative viability ([1]; first compound 0.2 µM) | relative viability ([1]; first compound 0.6325 µM) | relative viability ([1]; first compound 2 µM) | relative viability ([2]; first compound 0.02 µM) | relative viability ([2]; first compound 0.06325 µM) | relative viability ([2]; first compound 0.2 µM) | relative viability ([2]; first compound 0.6325 µM) | relative viability ([2]; first compound 2 µM) | relative viability (Entinostat + Tozasertib; first compound 0.02 µM) | relative viability (Entinostat + Tozasertib; first compound 0.06325 µM) | relative viability (Entinostat + Tozasertib; first compound 0.2 µM) | relative viability (Entinostat + Tozasertib; first compound 0.6325 µM) | relative viability (Entinostat + Tozasertib; first compound 2 µM) | relative viability (Entinostat + Linsitinib; first compound 0.02 µM) | relative viability (Entinostat + Linsitinib; first compound 0.06325 µM) | relative viability (Entinostat + Linsitinib; first compound 0.2 µM) | relative viability (Entinostat + Linsitinib; first compound 0.6325 µM) | relative viability (Entinostat + Linsitinib; first compound 2 µM)
1 | NCI-H1437 | 1.05 | 1.08 | 1.07 | 1.01 | 0.314 | 1.31 | 1.29 | 1.2 | 1.27 | 0.856 | 0.31 | 0.253 | 0.181 | 0.132 | 0.108 | 0.92 | 0.565 | 0.298 | 0.151 | 0.113
2 | NCI-H1651 | 0.996 | 0.917 | 0.957 | 1.09 | 0.357 | 0.784 | 0.786 | 0.723 | 0.821 | 0.551 | 0.619 | 0.705 | 0.584 | 0.333 | 0.237 | 0.952 | 0.976 | 0.959 | 0.827 | 0.365
3 | NCI-H1666 | 0.867 | 0.908 | 0.804 | 0.817 | 0.681 | 1 | 0.89 | 0.774 | 0.85 | 0.672 | 0.562 | 0.535 | 0.471 | 0.405 | 0.346 | 0.874 | 0.783 | 0.476 | 0.498 | 0.313
4 | NCI-H1734 | 0.865 | 0.938 | 0.86 | 0.84 | 0.467 | 0.825 | 0.948 | 0.695 | 0.804 | 0.563 | 0.25 | 0.296 | 0.267 | 0.215 | 0.22 | 0.908 | 0.985 | 0.987 | 0.916 | 0.817
5 | NCI-H1755 | 1.02 | 1.01 | 0.992 | 0.94 | 0.509 | 0.902 | 0.94 | 0.871 | 0.805 | 0.622 | 0.603 | 0.505 | 0.464 | 0.361 | 0.357 | 0.984 | 0.988 | 0.866 | 0.625 | 0.412
6 | NCI-H1793 | 0.953 | 0.845 | 0.834 | 0.911 | 0.475 | 0.564 | 0.843 | 0.59 | 0.548 | 0.391 | 0.309 | 0.308 | 0.284 | 0.205 | 0.175 | 0.964 | 0.841 | 0.834 | 0.698 | 0.364
7 | NCI-H1915 | 1.08 | 1.14 | 1.13 | 1.11 | 1.08 | 1.11 | 1.18 | 1.11 | 1.13 | 0.856 | 0.446 | 0.385 | 0.338 | 0.267 | 0.212 | 1.1 | 1.04 | 0.966 | 0.912 | 0.459
8 | NCI-H1944 | 1.19 | 1.17 | 1.16 | 1.13 | 1 | 0.898 | 0.916 | 0.942 | 0.772 | 0.731 | 0.224 | 0.215 | 0.204 | 0.162 | 0.132 | 1.12 | 1.19 | 1.23 | 0.554 | 0.357
9 | NCI-H1975 | 0.882 | 0.983 | 0.897 | 0.905 | 0.476 | 1.01 | 0.857 | 0.896 | 0.886 | 0.498 | 0.516 | 0.352 | 0.249 | 0.122 | 0.115 | 0.791 | 0.755 | 0.692 | 0.302 | 0.27
10 | NCI-H1993 | 0.768 | 0.627 | 0.689 | 0.74 | 0.667 | 0.879 | 0.837 | 0.732 | 0.723 | 0.665 | 0.615 | 0.605 | 0.519 | 0.542 | 0.487 | 0.642 | 0.832 | 0.673 | 0.65 | 0.661
11 | NCI-H2009 | 1.29 | 1.2 | 1.17 | 1.17 | 0.871 | 1.28 | 1.24 | 1.19 | 1.11 | 0.932 | 0.713 | 0.753 | 0.647 | 0.452 | 0.336 | 1.28 | 1.18 | 1.06 | 0.8 | 0.651
12 | NCI-H2023 | 0.639 | 0.755 | 0.602 | 0.543 | 0.333 | 0.889 | 1.07 | 0.765 | 0.759 | 0.511 | 0.218 | 0.221 | 0.138 | 0.0768 | 0.0712 | 0.671 | 0.778 | 0.48 | 0.191 | 0.133
13 | NCI-H2085 | 0.839 | 1.02 | 0.885 | 0.82 | 0.456 | 0.998 | 0.998 | 0.775 | 0.938 | 0.604 | 0.788 | 0.618 | 0.612 | 0.431 | 0.365 | 0.871 | 0.865 | 0.788 | 0.574 | 0.499
14 | NCI-H2087 | 0.988 | 0.883 | 0.985 | 0.969 | 0.573 | 1.03 | 1.28 | 1.05 | 0.962 | 0.741 | 0.222 | 0.219 | 0.177 | 0.116 | 0.0873 | 0.815 | 0.733 | 0.779 | 0.559 | 0.481
15 | NCI-H2126 | 0.73 | 0.79 | 0.68 | 0.581 | 0.601 | 1.19 | 1.24 | 1.1 | 0.977 | 1.04 | 0.812 | 0.758 | 0.614 | 0.38 | 0.262 | 0.732 | 0.707 | 0.618 | 0.518 | 0.367
16 | NCI-H2228 | 0.588 | 0.481 | 0.737 | 0.728 | 0.524 | 0.911 | 0.855 | 1 | 0.836 | 0.446 | 0.258 | 0.142 | 0.207 | 0.0934 | 0.11 | 0.587 | 0.635 | 0.578 | 0.365 | 0.354

Source: the supplement of paper PMC10307832
